Values of other authors in patent US12636242B2, “Increased solubilization of diethylamino hydroxybenzoyl hexyl benzoate” (DSM IP ASSETS B.V., priority 2020, dated 2026).
Read-outs that look alike come from different tables or passages of the source.

[1] = listed as Diethylamino hydroxybenzoyl hexyl benzoate

Solubility in esters and alcohols (ethyl hexyl-benzoate, ethanol): very soluble
Solubility in esters and alcohols (ethyl hexyl-benzoate, ethanol) [1]: moderate solubility
Solubility in water and alkanes: insoluble
Solubility in water and alkanes [1]: very low
SMILES: CCCCCCOC(=O)c1ccccc1C(=O)c1ccc(N(CC)CC)cc1O [UV-filter of the formula (I), diethylamino hydroxybenzoyl hexyl benzoate]
